# Data as given in publication PMC3235172, “Distinct Expression Profiles and Different Functions of Odorant Binding Proteins in Nilaparvata lugens Stål” (PLoS ONE, 2011).
# Where two headings read alike, the source gives them in different places.
# Experiments:
# NlugOBP1 = NlugOBP1 (Nilaparvata lugens, UniProt B6E9U1); test: Competitive fluorescence binding assay (1-NPN probe) with recombinant NlugOBP1
# Procedure: (§1) The excitation wavelength was 337 nm and the emission spectrum was recorded between 370 and 460 nm by a fluorescence spectrometer (Hitachi F-7000 Fluorescence Spectrophotometer, Japan) with a 1 cm light path quartz cuvette and 10 nm slits for both excitation and emission.
# NlugOBP2 = NlugOBP2 (Nilaparvata lugens, UniProt B6E9U2); test: Competitive fluorescence binding assay (1-NPN probe) with recombinant NlugOBP2
# Procedure: as §1
# NlugOBP3 = NlugOBP3 (Nilaparvata lugens, UniProt B6E9U3); test: Competitive fluorescence binding assay (1-NPN probe) with recombinant NlugOBP3
# Procedure: as §1
# [1] = calculated from IC50, protein and 1-NPN at 2 µM, pH 7.4, read-out: OBP1 Ki
# [2] = displacement of 1-NPN, protein and 1-NPN at 2 µM, 50 mM Tris-HCl pH 7.4, read-out: OBP1 IC50
# [3] = calculated from IC50, protein and 1-NPN at 2 µM, pH 7.4, read-out: OBP2 Ki
# [4] = displacement of 1-NPN, protein and 1-NPN at 2 µM, 50 mM Tris-HCl pH 7.4, read-out: OBP2 IC50
# [5] = calculated from IC50, protein and 1-NPN at 2 µM, pH 7.4, read-out: OBP3 Ki
# [6] = displacement of 1-NPN, protein and 1-NPN at 2 µM, 50 mM Tris-HCl pH 7.4, read-out: OBP3 IC50
# Sequence of NlugOBP1 (B6E9U1 entry or part of it): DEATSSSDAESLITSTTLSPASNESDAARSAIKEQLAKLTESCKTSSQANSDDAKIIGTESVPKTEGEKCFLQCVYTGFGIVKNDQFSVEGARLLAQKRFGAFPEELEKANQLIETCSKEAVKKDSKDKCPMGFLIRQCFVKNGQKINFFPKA
# Sequence of NlugOBP2 (B6E9U2 entry or part of it): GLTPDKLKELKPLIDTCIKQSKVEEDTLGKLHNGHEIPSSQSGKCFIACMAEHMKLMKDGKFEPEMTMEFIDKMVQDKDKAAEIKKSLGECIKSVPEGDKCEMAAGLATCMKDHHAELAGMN
# Sequence of NlugOBP3 (B6E9U3 entry or part of it): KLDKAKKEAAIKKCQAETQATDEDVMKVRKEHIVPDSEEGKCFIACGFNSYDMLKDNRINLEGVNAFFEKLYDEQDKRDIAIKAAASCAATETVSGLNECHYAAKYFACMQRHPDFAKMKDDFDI
Ki (NlugOBP1; [1]) [µM],IC50 (NlugOBP1; [2]) [µM],Ki (NlugOBP2; [3]) [µM],IC50 (NlugOBP2; [4]) [µM],Ki (NlugOBP3; [5]) [µM],IC50 (NlugOBP3; [6]) [µM],binding ability with NlugOBP1 (in words) (NlugOBP1),binding ability with NlugOBP2 (in words) (NlugOBP2),binding ability with NlugOBP3 (in words) (NlugOBP3),Ki (NlugOBP3; read-out: Ki with NlugOBP3) [µM],SMILES,IC50 (NlugOBP1) [µM],Ki (NlugOBP1) [µM],IC50 (NlugOBP2) [µM],Ki (NlugOBP2) [µM],IC50 (NlugOBP3) [µM],Ki (NlugOBP3) [µM],Kd (NlugOBP1) [µM],Kd (NlugOBP2) [µM],Kd (NlugOBP3) [µM]
> 50,> 50,> 50,> 50,> 50,> 50,–,–,–,–,"CCCCCC(C)O (stereo not drawn) [Ligand 2, 2-Heptanol]",–,–,–,–,–,–,–,–,–
19.5,22.8,19.8,23,4.9,6.9,high binding ability,high binding ability,high binding ability,–,"CC(C)=CCC/C(C)=C/CC/C(C)=C/CO [Ligand 5, Farnesol]",–,–,–,–,–,–,–,–,–
34,39.9,> 50,> 50,26.1,36.6,–,–,–,–,"OCCc1ccccc1 [Ligand 7, 2-phenylethanol]",–,–,–,–,–,–,–,–,–
16.6,19.5,> 50,> 50,18.9,26.5,–,–,–,–,"CCCCCCCCCCCC=O [Ligand 12, Dodecyl aldehyde]",–,–,–,–,–,–,–,–,–
25.3,29.7,17,19.8,9.6,13.5,relatively high binding abilities,relatively high binding abilities,relatively high binding abilities,–,"CCCCCCCCCCCCCC(C)=O [Ligand 16, 2-Pentadecanone]",–,–,–,–,–,–,–,–,–
> 50,> 50,> 50,> 50,> 50,> 50,–,–,–,–,"CCCCCOC(C)=O [Ligand 18, Amyl acetate]",–,–,–,–,–,–,–,–,–
30.5,35.7,> 50,> 50,> 50,> 50,some affinities,–,none,–,"CC(=O)OCCC(C)C [Ligand 19, Isoamyl acetate]",–,–,–,–,–,–,–,–,–
> 50,> 50,25.2,29.3,22.4,31.3,–,–,–,–,"CCC/C=C/COC(C)=O [Ligand 20, (E)-2-Hexenyl acetate]",–,–,–,–,–,–,–,–,–
37.9,44.4,> 50,> 50,22,30.8,–,–,–,–,"CCCCCCOC(C)=O [Ligand 21, Hexyl acetate]",–,–,–,–,–,–,–,–,–
> 50,> 50,32.5,37.8,27.1,38,–,–,–,–,"CC/C=C\CCOC(C)=O [Ligand 22, (Z)-3-Hexenyl acetate]",–,–,–,–,–,–,–,–,–
> 50,> 50,> 50,> 50,> 50,> 50,–,–,–,–,"CCCCCCCCCCCCCCCCCCCC [Ligand 28, Eicosane]",–,–,–,–,–,–,–,–,–
> 50,> 50,> 50,> 50,> 50,> 50,–,–,–,–,"CCCCCCCCCCCCC [Ligand 29, Tridecane]",–,–,–,–,–,–,–,–,–
> 50,> 50,> 50,> 50,> 50,> 50,–,–,–,–,"CCCCCCCCCCCCCCCCC [Ligand 30, Heptadecane]",–,–,–,–,–,–,–,–,–
> 50,> 50,> 50,> 50,> 50,> 50,–,–,–,–,"CCCCCCCCCCCCCCCCCC [Ligand 31, Octadecane]",–,–,–,–,–,–,–,–,–
> 50,> 50,> 50,> 50,> 50,> 50,–,–,–,–,"CCCCCCCCCCCCCC [Ligand 32, Tetradecane]",–,–,–,–,–,–,–,–,–
16.2,19,29.1,33.9,–,10.1,–,–,–,7.2,"C=CC(=C)CCC=C(C)C [Ligand 33, Myrcene]",–,–,–,–,–,–,–,–,–

# Further lines, the molecule ahead of its results:
SMILES,Ki (NlugOBP1; [1]) [µM],IC50 (NlugOBP1; [2]) [µM],Ki (NlugOBP2; [3]) [µM],IC50 (NlugOBP2; [4]) [µM],Ki (NlugOBP3; [5]) [µM],IC50 (NlugOBP3; [6]) [µM],binding ability with NlugOBP1 (in words) (NlugOBP1),binding ability with NlugOBP2 (in words) (NlugOBP2),binding ability with NlugOBP3 (in words) (NlugOBP3),Ki (NlugOBP3; read-out: Ki with NlugOBP3) [µM],IC50 (NlugOBP1) [µM],Ki (NlugOBP1) [µM],IC50 (NlugOBP2) [µM],Ki (NlugOBP2) [µM],IC50 (NlugOBP3) [µM],Ki (NlugOBP3) [µM],Kd (NlugOBP1) [µM],Kd (NlugOBP2) [µM],Kd (NlugOBP3) [µM]
"C=CC(C)(O)CC/C=C(\C)CCC=C(C)C (racemic) [Ligand 3, (+/-)Nerolidol]",24.2,28.4,29.1,33.9,17.7,24.8,–,–,–,–,–,–,–,–,–,–,–,–,–
"COC(C)(C)CCC[C@H](C)C/C=C/C(C)=C/C(=O)OC(C)C (racemic) [Ligand 39, Methoprene]",–,–,–,–,–,–,high binding ability,high binding ability,high binding ability,–,19.4,16.6,21.1,18.1,14.7,10.5,–,–,–
"c1ccc(Nc2cccc3ccccc23)cc1 [Ligand 1-NPN, N-phenyl-1-naphthyl-amine, reference compound]",–,–,–,–,–,–,–,–,–,–,–,–,–,–,–,–,9.7 ± 0.9,10.3 ± 1.3,3.2 ± 0.3
"CC/C=C/CCO [Ligand 4, (E)-3-Hexen-1-ol]",–,–,–,–,–,–,–,–,–,–,> 50,> 50,> 50,> 50,29.6,21.1,–,–,–
"C=CC(C)(O)CCC=C(C)C (stereo not drawn) [Ligand 6, Linalool]",–,–,–,–,–,–,some affinities,–,none,–,40.8,34.7,> 50,> 50,> 50,> 50,–,–,–
"CC(C)=CCC/C(C)=C/CO [Ligand 8, Geraniol]",–,–,–,–,–,–,–,–,–,–,> 50,> 50,> 50,> 50,32.6,23.3,–,–,–
"CC1CCC(C(C)C)C(O)C1 (stereo not drawn) [Ligand 10, Menthol]",–,–,–,–,–,–,–,–,–,–,> 50,> 50,> 50,> 50,> 50,> 50,–,–,–
"CCC/C=C/C=O [Ligand 13, (E)-2-Hexenal]",–,–,–,–,–,–,binds none,can bind,could bind,–,> 50,> 50,33.5,28.8,42,30,–,–,–
"O=Cc1ccccc1 [Ligand 14, Benzaldehyde]",–,–,–,–,–,–,–,–,–,–,> 50,> 50,38.7,33.3,41,29.3,–,–,–
"CCCCCCCCCCCC(C)=O [Ligand 15, 2-Tridecanone]",20.5,24,37.1,43.2,8.6,12,relatively high binding abilities,relatively high binding abilities,relatively high binding abilities,–,–,–,–,–,–,–,–,–,–
"CC(=O)c1ccccc1 [Ligand 17, Acetophenone]",29.3,34.3,27.8,32.3,23.1,32.4,relatively high binding abilities,relatively high binding abilities,relatively high binding abilities,–,–,–,–,–,–,–,–,–,–
"CCOC(=O)c1ccccc1 [Ligand 23, Ethyl benzoate]",–,–,–,–,–,–,–,–,–,–,> 50,> 50,> 50,> 50,39,27.9,–,–,–
"COC(=O)c1ccccc1 [Ligand 24, Methyl benzoate]",–,–,–,–,–,–,–,–,–,–,> 50,> 50,> 50,> 50,> 50,> 50,–,–,–
"COC(=O)c1ccccc1O [Ligand 25, Methyl salicylate]",–,–,–,–,–,–,–,–,–,–,> 50,> 50,37.4,32.2,44.8,32,–,–,–
"CCCCCCCCCCCC(=O)O [Ligand 26, Dodecanoic acid]",–,–,–,–,–,–,–,–,–,–,12.1,10.3,> 50,> 50,13.9,9.9,–,–,–
"CCCCCCCCCCCCCCCC(=O)O [Ligand 27, Palmitic acid]",22.1,25.9,> 50,> 50,7.2,10.1,–,–,–,–,–,–,–,–,–,–,–,–,–
"CC1=CC[C@@H]2C[C@H]1C2(C)C [Ligand 34, (+)-α-Pinene]",–,–,–,–,–,–,–,–,–,–,36.4,31.1,> 50,> 50,16.1,11.5,–,–,–
"C=C(C)[C@H]1CC=C(C)CC1 [Ligand 35, (R)-(+)-Limonene]",27.6,32.4,> 50,> 50,23.6,33.1,–,–,considerable affinities,–,–,–,–,–,–,–,–,–,–
"C=C1CC/C=C(\C)CC[C@@H]2[C@@H]1CC2(C)C [Ligand 36, β-Caryophyllene]",–,–,–,–,–,–,–,–,considerable affinities,–,> 50,> 50,30.1,25.9,37.4,26.7,–,–,–
"CC(=O)/C=C/C1=C(C)CCCC1(C)C [Ligand 37, β- Ionone]",–,–,–,–,–,–,relatively high binding abilities,relatively high binding abilities,relatively high binding abilities,–,25.2,21.5,25.8,22.2,8.5,6.1,–,–,–
